Source: ChEMBL document CHEMBL1137879, “The development of new bicyclic pyrazole-based cytokine synthesis inhibitors” (Bioorg Med Chem Lett, 2004)

Legend:
[1] = target: Mitogen-activated protein kinase 14 (Homo sapiens, UniProt Q16539); assay: Inhibition of human Mitogen-activated protein kinase p38 alpha
THP-1 = assay: Concentration required to inhibit production of Tumor necrosis factor, alpha in LPS-stimulated human monocytic cells (THP-1); assay type: functional, cell-based

Chain of Mitogen-activated protein kinase 14 (Q16539 whole entry): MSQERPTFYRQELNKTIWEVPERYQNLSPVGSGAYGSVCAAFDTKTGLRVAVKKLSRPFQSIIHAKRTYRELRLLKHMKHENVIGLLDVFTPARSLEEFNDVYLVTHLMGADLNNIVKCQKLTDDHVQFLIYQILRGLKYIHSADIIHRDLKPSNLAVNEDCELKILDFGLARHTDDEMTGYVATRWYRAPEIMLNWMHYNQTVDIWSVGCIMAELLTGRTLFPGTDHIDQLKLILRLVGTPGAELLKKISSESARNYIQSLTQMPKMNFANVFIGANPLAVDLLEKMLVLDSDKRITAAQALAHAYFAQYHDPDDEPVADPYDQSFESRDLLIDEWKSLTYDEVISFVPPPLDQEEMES

Structure (SMILES): Fc1ccc(-c2c(-c3ccnc(Oc4ccccc4)n3)nn3c2OCCC3)cc1
- IC50 [1]: 6600 nM
- IC50 (THP-1): > 10000 nM

Structure (SMILES): Fc1ccc(-c2c(-c3ccnc(Oc4ccccc4)n3)nn3c2OCC3)cc1
- IC50 [1]: 2200 nM
- IC50 (THP-1): 300 nM

Structure (SMILES): C[C@@H](Nc1nccc(-c2nn3c(c2-c2ccc(F)cc2)OCC3)n1)c1ccccc1
- IC50 [1]: 11200 nM
- IC50 (THP-1): > 2000 nM

Structure (SMILES): COC[C@@H](C)Nc1nccc(-c2nn3c(c2-c2ccc(F)cc2)OCC3)n1
- IC50 [1]: 280 nM
- IC50 (THP-1): 1700 nM

Structure (SMILES): CCOCn1nnc(-c2ccncc2)c1-c1ccc(F)cc1
- IC50 [1]: 310 nM

Structure (SMILES): Oc1[nH]nc(-c2ccncc2)c1-c1ccc(F)cc1
- IC50 [1]: 320 nM
- IC50 (THP-1): 3100 nM

Structure (SMILES): Fc1ccc(-c2c(-c3ccncc3)nn3c2OCCC3)cc1
- IC50 [1]: 460 nM
- IC50 (THP-1): 3100 nM

Structure (SMILES): CC[C@@H](C)Nc1nccc(-c2nn3c(c2-c2ccc(F)cc2)OCC3)n1
- IC50 [1]: 360 nM
- IC50 (THP-1): 80 nM
